Values quoted from earlier work in patent US9533037B2, “Methods for designing and preparing vaccines comprising directed sequence polymer compositions via the directed expansion of epitopes” (Declion Holdings LLC, priority 2007, dated 2017).

System: MBP83-99
Details: limited human trials

For AKPVVHLFANIVTPRTP, the “immune reactivity against the peptide” value is given as “long term immune reactivity” and the “clinical efficacy by evaluation using MRI” value (multiple sclerosis) is given as “clinically ineffective”.
